We go through five compounds from patent publication US4656166A, “Antibiotic compounds derived from cephalosporins, process for their production and pharmaceutical compositions” (Sanofi, priority 1983, dated 1987).

As a reminder, the MIC is the lowest concentration found to suppress growth.

The structures appear in SMILES notation. In brackets after ≈: the same amount, converted by molar mass. Where two headings read alike, the source gives them in different places.

The subject of test [1] is Escherichia coli SOL 90. Put plainly: MIC, in vitro dilution method, Escherichia coli SOL 90 (Table III). The class given is cell-based. Particulars: SOL90; Escherichia coli SOL 90; dilution method; read-out: MIC. In a few lines: (§1)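 Compounds are serially diluted in vitro and tested for bacteriostatic effect on each Gram-negative strain; the lowest inhibiting concentration is recorded as MIC (μg/ml).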

For test [2], the system named is Citrobacter RL 49. Put plainly: MIC, in vitro dilution method, Citrobacter RL 49 (Table III). The class given is cell-based. Particulars: RL49; Citrobacter RL 49; dilution method; read-out: MIC. In a few lines: as §1
Test [3] has as its system Proteus vulgaris RL 99 bis. Put plainly: MIC, in vitro dilution method, Proteus vulgaris RL 99 bis (Table III). Conditions: RL99BIS. The class given is cell-based. In a few lines:
as §1

Test [4] has as its system Serratia RL 72. The test can be described thus: MIC, in vitro dilution method, Serratia RL 72 (Table III). Conditions: RL72. In kind it is cell-based. In a few lines:
as §1

Test [5] concerns Klebsiella RO 30. The test can be described thus: MIC, in vitro dilution method, Klebsiella RO 30 (Table III). The class given is cell-based. Conditions: RO30; Klebsiella RO 30; dilution method; read-out: MIC. In a few lines:
as §1

Test [6] deals with Enterobacter RO 154. The test can be described thus: MIC, in vitro dilution method, Enterobacter RO 154 (Table III). In kind it is cell-based. Conditions: RO154; Enterobacter RO 154; dilution method; read-out: MIC. In a few lines: as §1
Test [7] has as its system Pseudomonas RL 112. Put plainly: MIC, in vitro dilution method, Pseudomonas RL 112 (Table III). Particulars: RL112. In kind it is cell-based. In a few lines: as §1
Test [8] relates to Escherichia coli 255. Put plainly: MIC on beta-lactamase producing strain Escherichia coli 255 (Table IV). The class given is cell-based. Particulars: Escherichia coli 255, producing beta-lactamases; read-out: MIC. As to the method:
(§2) To evaluate the stability of these products towards beta-lactamases, their MIC was determined on isogenic strains producing and not producing beta-lactamases.
(§3) The results are expressed in μg/ml in Table IV.

The test system of test [9] is Escherichia coli 255/L.7. Put plainly: MIC on strain not producing beta-lactamase, Escherichia coli 255/L.7 (Table IV). Conditions: Escherichia coli 255/L.7 *, not producing beta-lactamases; read-out: MIC. The class given is cell-based. As to the method: as §2, §3
Test [10] has as its system Serrtia liquefaciens SL/326 A. Put plainly: MIC on beta-lactamase producing strain Serratia liquefaciens SL/326 A (Table IV). In kind it is cell-based. As to the method: as §2, §3
In test [11] the test system is Serrtia liquefaciens SL 1326 S. Put plainly: MIC on strain not producing beta-lactamase, Serratia liquefaciens SL 1326 S (Table IV). In kind it is cell-based. Conditions: SL1326S, not producing beta-lactamases. Here is the method: as §2, §3
In test [12] the test system is Proteus vulgaris GN 76/C.1. The test can be described thus: MIC on beta-lactamase producing strain Proteus vulgaris GN 76/C.1 (Table IV). Conditions: GN76. The class given is cell-based. Here is the method: as §2, §3
Test [13] has as its system Proteus vulgaris GN 76/C.1/3. The test can be described thus: MIC on strain not producing beta-lactamase, Proteus vulgaris GN 76/C.1/3 (Table IV). The class given is cell-based. Particulars: GN76, not producing beta-lactamases. Here is the method: as §2, §3
Test [14] has as its system Escherichia coli SOL 90. Put plainly: septicemic model of the mouse, Escherichia coli SOL 90 (Table V). In kind it is in vivo. Conditions: SOL90, sc, 96 h, mouse septicemia, sub-cutaneous, 1 to 5 hours after inoculation, 4 days observation, read-out: DE50 (the source's name). Here is the method:
The therapeutic effectiveness of the products was determined on the septicemic model of the mouse. the septicemia was initiated by the intraperitoneal innoculation of 0.5 ml of a suitable dilution of a suspension of the Escherichia coli SOL 90 strain. The products were administered in solution in a phosphate buffer pH 7.0 in a volume of 0.2 ml sub-cutaneously to batches of 10 mice, 1 to 5 hours after innoculation of the microorganism. After 4 days of observation in the course of which the mortality was noted, the 50% effective doses (DE 50) were calculated by the Muench and Reed method.

The mark [15] stands for this setting: Proteus vulgaris RL 99 bis, dilution method, read-out: MIC.
Setting [16] is: Proteus vulgaris GN 76/C.1, producing beta-lactamases, read-out: MIC.

On to `CC(C)(O/N=C(\C(=O)NC1C(=O)N2C(C(=O)O)=C(COC(=O)c3ccc(CN)cc3)C[S+]([O-])C12)c1csc(N)n1)C(=O)O` (stereo not shown) [42 042], for which the MIC was no more than 0.12 µg/mL in test [1]; no more than 0.12 µg/mL in test [2]; no more than 0.12 µg/mL in [3] (setting [15]); 2 µg/mL (≈ 3.15 µM) in test [4]; no more than 0.12 µg/mL in test [5]; 1 µg/mL (≈ 1.58 µM) in test [6]. Besides, the MIC in test [7] was 4 µg/mL (≈ 6.3 µM); in [8], no more than 0.12 µg/mL; in [9] it was no more than 0.12 µg/mL; in [10], 0.25 µg/mL (≈ 0.394 µM); in [11], no more than 0.12 µg/mL; in [12] (setting [16]) it was no more than 0.12 µg/mL. Further, the MIC in test [13] is no more than 0.12 µg/mL. Besides, the ED50 in test [14] was 0.05 mg/kg.

Consider `CC(C)(CN)C(=O)OCC1=C(C(=O)O)N2C(=O)C(NC(=O)/C(=N\OC(C)(C)C(=O)O)c3csc(N)n3)C2[S+]([O-])C1` (stereo not shown) [42 073], for which the MIC in test [1] was found to be 1 µg/mL (≈ 1.66 µM); in test [2] it was 0.5 µg/mL (≈ 0.832 µM); in test [3] (setting [15]), 0.5 µg/mL (≈ 0.832 µM); in test [4], 2 µg/mL (≈ 3.33 µM); in [5], 0.5 µg/mL (≈ 0.832 µM); in test [6], 4 µg/mL (≈ 6.66 µM). Also, the MIC was 4 µg/mL (≈ 6.66 µM) in [7]; 0.5 µg/mL (≈ 0.832 µM) in test [8]; 0.25 µg/mL (≈ 0.416 µM) in test [9]; 0.25 µg/mL (≈ 0.416 µM) in [10]; no more than 0.12 µg/mL in test [11]; 0.5 µg/mL (≈ 0.832 µM) in test [12] (setting [16]). For the same compound, in [14], the ED50 was 0.33 mg/kg.

As to `CC(C)(O/N=C(\C(=O)NC1C(=O)N2C(C(=O)O)=C(COC(=O)[C@H]3CC[C@H](CN)CC3)C[S+]([O-])C12)c1csc(N)n1)C(=O)O` (stereo partly shown) [42 117], the MIC is 0.25 µg/mL (≈ 0.39 µM) in [1]; 0.25 µg/mL (≈ 0.39 µM) in test [2]; no more than 0.12 µg/mL in test [3] (setting [15]); 0.5 µg/mL (≈ 0.78 µM) in [4]; no more than 0.12 µg/mL in test [5]; 1 µg/mL (≈ 1.56 µM) in test [6]. Further, the MIC in test [7] was 4 µg/mL (≈ 6.24 µM); in [8], 0.125 µg/mL (≈ 0.195 µM); in test [9], 0.06 µg/mL (≈ 0.0936 µM); in [10], 0.12 µg/mL (≈ 0.187 µM); in [11], no more than 0.06 µg/mL; in test [12] (setting [16]) it was no more than 0.06 µg/mL. Further, the minimal inhibitory concentration (MIC) in [13] was no more than 0.06 µg/mL. Further, the ED50 in [14] was found to be 0.11 mg/kg.

As to `CC(C)(ON=C(C(=O)NC1C(=O)N2C(C(=O)O)=C(COC(=O)c3ccc(NC(=O)CCN)cc3)C[S+]([O-])C12)c1csc(N)n1)C(=O)O` (stereo not shown) [42 546], the MIC in [1] was 0.25 µg/mL (≈ 0.361 µM); in test [2] it was 0.25 µg/mL (≈ 0.361 µM); in test [3] (Proteus vulgaris) it was no more than 0.125 µg/mL; in [4], 1 µg/mL (≈ 1.45 µM); in [5] it was 0.25 µg/mL (≈ 0.361 µM); in [6] it was 0.25 µg/mL (≈ 0.361 µM). Besides, the MIC in test [7] was 4 µg/mL (≈ 5.78 µM); in test [8] it was 0.0625 µg/mL (≈ 0.0904 µM); in test [9] it was no more than 0.0312 µg/mL; in [10], 0.25 µg/mL (≈ 0.361 µM); in [11], no more than 0.0312 µg/mL; in [12] (Proteus vulgaris) it was no more than 0.0312 µg/mL. In [13], this compound showed an MIC of 0.125 µg/mL (≈ 0.181 µM).

Consider `NCC(=O)Nc1nc(C(=O)OCC2=C(C(=O)O)N3C(=O)C(NC(=O)C(=NOC4(C(=O)O)CCC4)c4csc(N)n4)C3[S+]([O-])C2)cs1` (stereo not shown) [42 547], for which the MIC in test [1] is 0.5 µg/mL (≈ 0.718 µM); in test [2] it was 0.25 µg/mL (≈ 0.359 µM); in test [3] (Proteus vulgaris) it was no more than 0.125 µg/mL; in [4], 0.5 µg/mL (≈ 0.718 µM); in [5] it was 0.25 µg/mL (≈ 0.359 µM); in [6], 0.5 µg/mL (≈ 0.718 µM). The MIC in test [7] is 4 µg/mL (≈ 5.74 µM); in test [8], 0.125 µg/mL (≈ 0.179 µM); in test [9], no more than 0.0312 µg/mL; in test [10], 2 µg/mL (≈ 2.87 µM); in test [11], 0.125 µg/mL (≈ 0.179 µM); in [12] (setting [16]) it was 0.0625 µg/mL (≈ 0.0897 µM). This compound displayed an MIC in [13] of 0.25 µg/mL (≈ 0.359 µM).
